Tested on: participants with SSc-RP
Test: SHAQ - Alternative Disability Index
Format: in vivo, human
Parameters: key to SHAQ Alternative Disability Index, In-Clinic Visit (Day 12), Median: mean of 8 category scores, 0 = no difficulty to 3 = unable to do
Conditions: for alternative disability index, Change from Baseline, Mean / alternative disability index, Change from Baseline, Median / alternative disability index, Percent Change from Baseline, Mean / alternative disability index, Percent Change from Baseline, Median: Modified ITT Population-Part A, tadalafil 5 mg, alone or combined as labelled
From the text: The SHAQ is used to calculate a Disability Index to assess the participant qualify of life. The eight categories assessed by the Disability Index are 1) dressing and grooming, 2) arising, 3) eating, 4) walking, 5) hygiene, 6) reach, 7) grip, and 8) common daily activities. For each of these categories, patients report the amount of difficulty they have in performing two or three specific activities.
There are four possible responses for the Disability Index questions: • Without any difficulty=0 • With some difficulty=1 • With much difficulty=2 • Unable to do=3 • The highest score reported by the patient for any component question of the eight categories determines the score for that category. • If a component question is left blank or the response is too ambiguous to assign a score, then the score for that category is determined by the remaining completed question(s). • If all component questions are blank or if more than one answer is given, then follow up with the respondent is required. • If the respondent's mark is between the response columns, then move it to the closest one. If it's directly between the two, move it to the higher one.
The aid and device variables are not used to calculate the alternative disability index; it is calculated by adding the scores for each of the categories and dividing by the number of categories answered. This gives a score in the 0 to 3 range.

[1] = Any Cilnidipine (N = 17), Day 12, PP Population, Part A
[2] = Cilnidipine 10 mg, SSc patients, PP, Part A
[3] = Cilnidipine 20 mg, SSc patients, PP, Part A

`COCCOC(=O)C1=C(C)NC(C)=C(C(=O)OC/C=C/c2ccccc2)C1c1cccc([N+](=O)[O-])c1` (stereo not drawn) [Cilnidipine] was tested, and the “SHAQ Alternative Disability Index, Change from Baseline, Mean (SD)” value [1] was −0.006 (0.1912), the “SHAQ Alternative Disability Index, Change from Baseline, Median” value [1] was 0.000 and the “SHAQ Alternative Disability Index, In-Clinic Visit (Day 12), Mean (SD)” value [1] was 0.450 (0.4926). For the same molecule, the “SHAQ Alternative Disability Index, In-Clinic Visit (Day 12), Median” value [1] was 0.250, the “SHAQ Alternative Disability Index, Percent Change from Baseline, Mean (SD)” value [1] was 21.32 (100.525) % and the “SHAQ Alternative Disability Index, Percent Change from Baseline, Median” value [1] was −10.00%. The “SHAQ Alternative Disability Index, Change from Baseline, Max” value [2] was 0.38, the “SHAQ Alternative Disability Index, Change from Baseline, Mean” value [2] was 0.063 and the “SHAQ Alternative Disability Index, Change from Baseline, Median” value [2] was 0.000. The “SHAQ Alternative Disability Index, Change from Baseline, Min” value [2] was −0.13,, the “SHAQ Alternative Disability Index, Change from Baseline, Q1” value [2] was −0.063, and the “SHAQ Alternative Disability Index, Change from Baseline, Q3” value [2] was 0.188. For the same molecule, the “SHAQ Alternative Disability Index, Day 12, Max” value [2] was 1.25, the “SHAQ Alternative Disability Index, Day 12, Mean” value [2] was 0.563 and the “SHAQ Alternative Disability Index, Day 12, Median” value [2] was 0.500. For the same molecule, the “SHAQ Alternative Disability Index, Day 12, Min” value [2] was 0.00,, the “SHAQ Alternative Disability Index, Day 12, Q1” value [2] was 0.000, and the “SHAQ Alternative Disability Index, Percent Change from Baseline, Max” value [2] was 42.9. The “SHAQ Alternative Disability Index, Percent Change from Baseline, Mean” value [2] was 15.87, the “SHAQ Alternative Disability Index, Percent Change from Baseline, Median” value [2] was 15.87 and the “SHAQ Alternative Disability Index, Percent Change from Baseline, Min” value [2] was −11.1,. The “SHAQ Alternative Disability Index, Percent Change from Baseline, Q1” value [2] was −11.11,, the “SHAQ Alternative Disability Index, Percent Change from Baseline, Q3” value [2] was 42.86 and the “% change in Alternative Disability Index” value (Cilnidipine 20 mg (n = 3), SHAQ, mITT Part A) was −42%. For the same molecule, the “SHAQ Alternative Disability Index, Change from Baseline, Max” value [3] was 0.25, the “SHAQ Alternative Disability Index, Change from Baseline, Mean” value [3] was 0.000 and the “SHAQ Alternative Disability Index, Change from Baseline, Median” value [3] was −0.063. For the same molecule, the “SHAQ Alternative Disability Index, Change from Baseline, Min” value [3] was −0.13,, the “SHAQ Alternative Disability Index, Day 12, Max” value [3] was 0.50 and the “SHAQ Alternative Disability Index, Day 12, Mean” value [3] was 0.219. For the same molecule, the “SHAQ Alternative Disability Index, Day 12, Median” value [3] was 0.188, the “SHAQ Alternative Disability Index, Day 12, Min” value [3] was 0.00, and the “SHAQ Alternative Disability Index, Day 12, Q1” value [3] was 0.063,. The “SHAQ Alternative Disability Index, Day 12, Q3” value [3] was 0.375, the “SHAQ Alternative Disability Index, Percent Change from Baseline, Max” value [3] was 100.0 and the “SHAQ Alternative Disability Index, Percent Change from Baseline, Mean” value [3] was 5.56. For the same molecule, the “SHAQ Alternative Disability Index, Percent Change from Baseline, Median” value [3] was −33.33, the “SHAQ Alternative Disability Index, Percent Change from Baseline, Min” value [3] was −50.0, and the “SHAQ Alternative Disability Index, Percent Change from Baseline, Q1” value [3] was −50.00,. The “SHAQ Alternative Disability Index, Percent Change from Baseline, Q3” value [3] was 100.00, the “alternative disability index, Change from Baseline, Mean” value (Day 12, dose cilnidipine 10 mg) was 0.063 and the “alternative disability index, Change from Baseline, Median” value (Day 12, dose cilnidipine 10 mg) was 0.000. The “alternative disability index, Percent Change from Baseline, Mean” value (Day 12, dose cilnidipine 10 mg) was 15.87%, the “alternative disability index, Percent Change from Baseline, Median” value (Day 12, dose cilnidipine 10 mg) was 15.87% and the “alternative disability index, Change from Baseline, Mean” value (Day 12, dose cilnidipine 20 mg) was −0.083. The “alternative disability index, Change from Baseline, Median” value (Day 12, dose cilnidipine 20 mg) was −0.125, the “alternative disability index, Percent Change from Baseline, Mean” value (Day 12, dose cilnidipine 20 mg) was −41.67% and the “alternative disability index, Percent Change from Baseline, Median” value (Day 12, dose cilnidipine 20 mg) was −41.67%.
